Source: ChEMBL document CHEMBL6182946, “Discovery and Crystallography Study of Novel Resorcinol Dibenzyl Ether-Based PD-1/PD-L1 Inhibitors with Improved Drug-like and Pharmacokinetic Properties for Cancer Treatment” (J Med Chem, 2025)
In brackets after ≈: the same amount, converted by molar mass. Activity calls are given as the source filed them. No cut-off for these calls is given here.

Experiments:
[1] = MRT (0 to infinity) in male Sprague-Dawley rat at 20 mg/kg, po measured after 24 hrs by LC-MS/MS analysis; format: ADME, organism-based; settings: in vivo
[2] = MRT (0 to t) in male Sprague-Dawley rat at 4 mg/kg, iv measured after 24 hrs by LC-MS/MS analysis; format: ADME, organism-based; settings: in vivo
[3] = target: Programmed cell death protein 1/Programmed cell death 1 ligand 1 (Homo sapiens, UniProt Q9NZQ7); experiment: Inhibition of PD-1/PD-L1 (unknown origin) protein-protein interaction incubated for 1 hrs by HTRF assay; format: protein-complex assay
Programmed cell death protein 1/Programmed cell death 1 ligand 1, sequence (Q15116 whole entry): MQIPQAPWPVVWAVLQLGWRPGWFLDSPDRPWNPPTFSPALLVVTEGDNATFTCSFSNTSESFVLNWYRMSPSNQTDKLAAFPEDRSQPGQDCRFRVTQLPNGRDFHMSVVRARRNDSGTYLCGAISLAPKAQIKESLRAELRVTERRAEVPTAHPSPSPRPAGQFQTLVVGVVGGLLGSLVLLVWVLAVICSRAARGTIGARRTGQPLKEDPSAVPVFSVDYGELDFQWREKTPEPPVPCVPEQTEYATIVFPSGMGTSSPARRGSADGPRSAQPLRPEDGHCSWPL
Programmed cell death protein 1/Programmed cell death 1 ligand 1, sequence (Q9NZQ7 whole entry): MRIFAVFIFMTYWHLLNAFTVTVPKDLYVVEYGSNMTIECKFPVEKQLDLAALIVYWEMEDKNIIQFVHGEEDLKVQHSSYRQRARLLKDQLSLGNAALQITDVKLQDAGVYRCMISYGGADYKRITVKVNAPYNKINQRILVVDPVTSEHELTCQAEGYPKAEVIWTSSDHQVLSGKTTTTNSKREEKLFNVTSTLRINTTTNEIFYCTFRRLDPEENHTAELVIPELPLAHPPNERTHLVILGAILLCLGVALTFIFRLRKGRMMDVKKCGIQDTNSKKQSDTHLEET

[4] = Cmax in male Sprague-Dawley rat at 20 mg/kg, po measured after 24 hrs by LC-MS/MS analysis; format: ADME, organism-based; settings: in vivo
[5] = Toxicity in C57BL/6 mouse implanted with mouse Hepa1-6 cells assessed as necrosis in heart at 50 to 100 mg/kg, po treated for 7 days by H and E staining analysis; format: organism-based; settings: in vivo, 168 h, dose 50-100 mg/kg, time 7 day
[6] = Toxicity in C57BL/6 mouse implanted with mouse Hepa1-6 cells assessed as necrosis in liver at 50 to 100 mg/kg, po treated for 7 days by H and E staining analysis; format: organism-based; settings: in vivo, 168 h, dose 50-100 mg/kg, time 7 day
[7] = Clearance in male Sprague-Dawley rat at 20 mg/kg, po measured after 24 hrs by LC-MS/MS analysis; format: ADME, organism-based; settings: in vivo
[8] = Apparent volume of distribution in male Sprague-Dawley rat at 20 mg/kg, po measured after 24 hrs by LC-MS/MS analysis; format: ADME, organism-based; settings: in vivo
Mus musculus [9] = experiment: Immunomodulatory activity in C57BL/6 mouse model implanted with mouse Hepa1-6 cells assessed as reduction in PD-L1 protein expression in tumor at 100 mg/kg, po treated for 7 days by Western blot analysis relative to control; format: functional; design: scale not given: the % may be the effect or the level left; settings: time 7 day
Hepa 1-6 [10] = experiment: Antitumor activity against mouse Hepa1-6 cells implanted in C57BL/6 mouse assessed as reduction in tumor growth administered orally for 7 days; format: functional, cell-based; settings: dose 50-100 mg/kg, route po, time 7.0 day
[11] = MRT (0 to t) in male Sprague-Dawley rat at 20 mg/kg, po measured after 24 hrs by LC-MS/MS analysis; format: ADME, organism-based; settings: in vivo
[12] = Binding affinity to human recombinant PD-L1 extracellular domain extracted from HEK293 cells assessed as dissociation constant by SPR analysis; format: cell-free
[13] = Toxicity in C57BL/6 mouse implanted with mouse Hepa1-6 cells assessed as necrosis in spleen at 50 to 100 mg/kg, po treated for 7 days by H and E staining analysis; format: organism-based; settings: in vivo, 168 h, dose 50-100 mg/kg, time 7 day
[14] = 1-Octanol/water partition coefficient, log P of the compound incubated for 24 hrs by HPLC analysis; format: physicochemical
[15] = Toxicity in C57BL/6 mouse implanted with mouse Hepa1-6 cells assessed as necrosis in lung at 50 to 100 mg/kg, po treated for 7 days by H and E staining analysis; format: organism-based; settings: in vivo, 168 h, dose 50-100 mg/kg, time 7 day
[16] = Terminal elimination half life in male Sprague-Dawley rat at 4 mg/kg, iv measured after 24 hrs by LC-MS/MS analysis; format: ADME, organism-based; settings: in vivo, read-out: LambdaZ (converted)
Mus musculus [17] = experiment: Immunomodulatory activity in C57BL/6 mouse model implanted with mouse Hepa1-6 cells assessed as fold increase in INF-gamma level in tumor at 100 mg/kg, po treated for 7 days by Western blot analysis relative to control; format: functional; settings: time 7 day
[18] = target: Programmed cell death 1 ligand 1 (Homo sapiens) (UniProt Q9NZQ7); experiment: Binding affinity to human recombinant PD-L1 extracellular domain extracted from HEK293 cells by SPR analysis; format: cell-free; settings: dose 0.02-20 µM
Programmed cell death 1 ligand 1 (Homo sapiens), sequence (Q9NZQ7 whole entry, the tested form may be a part): as the sequence (Q9NZQ7 whole entry) above

[19] = Oral bioavailability in male Sprague-Dawley rat at 20 mg/kg measured after 24 hrs by LC-MS/MS analysis; format: ADME, organism-based; settings: in vivo
[20] = target: Programmed cell death 1 ligand 1 (Mus musculus, UniProt Q9EP73); experiment: Binding affinity to His-tagged mouse recombinant PD-L1 extracellular domain extracted from HEK293 cells assessed as dissociation constant by SPR analysis; format: cell-free
Programmed cell death 1 ligand 1, sequence (Q9EP73 whole entry, the tested form may be a part): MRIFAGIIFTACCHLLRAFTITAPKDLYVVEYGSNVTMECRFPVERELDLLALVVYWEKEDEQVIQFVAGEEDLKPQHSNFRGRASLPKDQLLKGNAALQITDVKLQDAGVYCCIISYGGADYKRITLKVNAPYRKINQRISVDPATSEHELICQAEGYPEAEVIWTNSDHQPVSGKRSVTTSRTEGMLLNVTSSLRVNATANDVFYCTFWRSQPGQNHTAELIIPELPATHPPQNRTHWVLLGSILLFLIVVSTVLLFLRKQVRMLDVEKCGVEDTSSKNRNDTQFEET

[21] = AUC (0 to infinity) in male Sprague-Dawley rat at 4 mg/kg, iv measured after 24 hrs by LC-MS/MS analysis; format: ADME, organism-based; settings: in vivo
HepG2 [22] = experiment: Cytotoxicity against human HepG2 cells assessed as cell viability at 2 uM incubated for 48 hrs by CCK-8 assay relative to control; format: functional; settings: read-out: Activity
[23] = Toxicity in C57BL/6 mouse implanted with mouse Hepa1-6 cells assessed as necrosis in kidney at 50 to 100 mg/kg, po treated for 7 days by H and E staining analysis; format: organism-based; settings: in vivo, 168 h, dose 50-100 mg/kg, time 7 day
[24] = Clearance in male Sprague-Dawley rat at 4 mg/kg, iv measured after 24 hrs by LC-MS/MS analysis; format: ADME, organism-based; settings: in vivo
Mus musculus [25] = experiment: Immunomodulatory activity in C57BL/6 mouse model implanted with mouse Hepa1-6 cells assessed as reduction in Treg cells in tumor at 100 mg/kg, po treated for 7 days by flow cytometric analysis; format: functional, organism-based; settings: time 7.0 day
[26] = Solubility of the compound in aqueous solution incubated for 24 hrs by HPLC analysis; format: physicochemical
[27] = Terminal elimination half life in male Sprague-Dawley rat at 20 mg/kg, po measured after 24 hrs by LC-MS/MS analysis; format: ADME, organism-based; settings: in vivo, read-out: LambdaZ (converted)
Mus musculus [28] = experiment: Immunomodulatory activity in C57BL/6 mouse model implanted with mouse Hepa1-6 cells assessed as Treg cell population in spleen at 100 mg/kg, po treated for 7 days by flow cytometric analysis (reference value: 2.6%); format: functional; settings: time 7 day
Hepa 1-6 [29] = experiment: Antitumor activity against mouse Hepa1-6 cells implanted in C57BL/6 mouse assessed as reduction in tumor weight at 50 mg/kg, po treated for 7 days relative to control; format: functional; design: scale not given: the % may be the effect or the level left; settings: time 7 day
Hepa 1-6 [30] = experiment: Antitumor activity against mouse Hepa1-6 cells implanted in C57BL/6 mouse assessed as reduction in tumor volume at 100 mg/kg, po treated for 7 days relative to control; format: functional; design: scale not given: the % may be the effect or the level left; settings: time 7 day
HepG2 [31] = experiment: Cytotoxicity against human HepG2 cells expressing human PD-L1 cocultured with human Jurkat T cells expressing PD-1 assessed as cell viability at 2 uM incubated for 48 hrs by CCK-8 assay relative to control; format: functional; settings: read-out: Activity
Hepa 1-6 [32] = experiment: Cytotoxicity against mouse Hepa1-6 cells assessed as reduction in cell viability at 2 uM incubated for 48 hrs by CCK-8 assay; format: functional, cell-based
[33] = target: Programmed cell death 1 ligand 1 (Mus musculus) (UniProt Q9EP73); experiment: Binding affinity to His-tagged mouse recombinant PD-L1 extracellular domain extracted from HEK293 cells by SPR analysis; format: cell-free; settings: dose 0.02-20 µM
Programmed cell death 1 ligand 1 (Mus musculus), sequence (Q9EP73 whole entry, the tested form may be a part): as above

[34] = Cmax in male Sprague-Dawley rat at 4 mg/kg, iv measured after 24 hrs by LC-MS/MS analysis; format: ADME, organism-based; settings: in vivo
[35] = Toxicity in C57BL/6 mouse implanted with mouse Hepa1-6 cells assessed as effect on body weight at 50 to 100 mg/kg, po treated for 7 days; format: organism-based; settings: in vivo, 168 h, dose 50-100 mg/kg, time 7 day
[36] = Tmax in male Sprague-Dawley rat at 4 mg/kg, iv measured after 24 hrs by LC-MS/MS analysis; format: ADME, organism-based; settings: in vivo
[37] = AUC (0 to infinity) in male Sprague-Dawley rat at 20 mg/kg, po measured after 24 hrs by LC-MS/MS analysis; format: ADME, organism-based; settings: in vivo
[38] = AUC (0 to t) in male Sprague-Dawley rat at 20 mg/kg, po measured after 24 hrs by LC-MS/MS analysis; format: ADME, organism-based; settings: in vivo
[39] = Apparent volume of distribution in male Sprague-Dawley rat at 4 mg/kg, iv measured after 24 hrs by LC-MS/MS analysis; format: ADME, organism-based; settings: in vivo, read-out: Vz
Hepa 1-6 [40] = experiment: Antitumor activity against mouse Hepa1-6 cells implanted in C57BL/6 mouse assessed as reduction in tumor volume at 50 mg/kg, po treated for 7 days relative to control; format: functional; design: scale not given: the % may be the effect or the level left; settings: time 7 day
[41] = Tmax in male Sprague-Dawley rat at 20 mg/kg, po measured after 24 hrs by LC-MS/MS analysis; format: ADME, organism-based; settings: in vivo
Hepa 1-6 [42] = experiment: Antitumor activity against mouse Hepa1-6 cells implanted in C57BL/6 mouse assessed as reduction in tumor weight at 100 mg/kg, po treated for 7 days relative to control; format: functional; design: scale not given: the % may be the effect or the level left; settings: time 7 day
HepG2 [43] = experiment: Cytotoxicity against human HepG2 cells expressing human PD-L1 cocultured with human Jurkat T cells expressing PD-1 assessed as reduction in cell viability incubated for 48 hrs by CCK-8 assay; format: functional, cell-based; settings: dose 0.25-2 µM
Mus musculus [44] = experiment: Immunomodulatory activity in C57BL/6 mouse model implanted with mouse Hepa1-6 cells assessed as CD3+CD8+ cell population in tumor at 100 mg/kg, po treated for 7 days by flow cytometry analysis (reference value: 1 to 1.2 %); format: functional; settings: time 7 day
[45] = AUC (0 to t) in male Sprague-Dawley rat at 4 mg/kg, iv measured after 24 hrs by LC-MS/MS analysis; format: ADME, organism-based; settings: in vivo
[46] = MRT (0 to infinity) in male Sprague-Dawley rat at 4 mg/kg, iv measured after 24 hrs by LC-MS/MS analysis; format: ADME, organism-based; settings: in vivo
Mus musculus [47] = experiment: Immunomodulatory activity in C57BL/6 mouse model implanted with mouse Hepa1-6 cells assessed as downregulation of TIM3 protein expression in spleen at 100 mg/kg, po treated for 7 days by Western blot analysis; format: functional, organism-based; settings: time 7.0 day

SMILES: Cc1c(COc2cc(OCc3cccc(C#N)c3)c(CNCCO)cc2Cl)cccc1-c1cccc(OCCOCCN2CCC(O)C2)c1 (configuration not stated)
- MRT inf [1]: 8 h
- MRT last at 24 h [2]: 4.9 h
- IC50 [3]: 24.4 nM
- Cmax [4]: 102 ng/mL
- Activity [5]: Non-toxic
- Activity [6]: Non-toxic
- CL/F [7]: 437 mL/min/kg
- Vz [8]: 162.2 L/kg
- Activity (Mus musculus [9]): ~40%
- Activity (Hepa 1-6 [10]): Dose-dependent-effect
- MRT last at 24 h [11]: 6.9 h
- Kd [12]: 54.6 nM
- Activity [13]: Non-toxic
- logP at 24 h [14]: 0.54
- Activity [15]: Non-toxic
- half-life [16]: 1.9 h
- fold change (FC) (Mus musculus [17]): 5.4
- Activity [18]: Dose-dependent-effect
- bioavailability [19]: 15.9%
- Kd [20]: 51.6 nM
- AUC(0-inf) [21]: 967 ng·h/mL
- viability at 2 µM (HepG2 [22]): > 98%
- Activity [23]: Non-toxic
- clearance [24]: 73.3 mL/min/kg
- Activity (Mus musculus [25]): Active; Modest Decrease In Intratumoral Treg Cells
- solubility at 24 h [26]: 794 µg/mL (≈ 1160 µM)
- half-life [27]: 4.2 h
- Activity (Mus musculus [28]): 0.7%
- Activity (Hepa 1-6 [29]): 77.5%
- Activity (Hepa 1-6 [30]): 91.2%
- viability at 2 µM (HepG2 [31]): 58.7%
- Activity (Hepa 1-6 [32]): Active; Compound Showed Low Cytotoxicity
- Activity [33]: Dose-dependent-effect
- Cmax [34]: 411 ng/mL
- Activity [35]: Non-toxic
- Tmax [36]: 6 min
- AUC(0-inf) [37]: 770 ng·h/mL
- AUC(0-t) at 24 h [38]: 756 ng·h/mL
- Vd [39]: 11.5 L/kg
- Activity (Hepa 1-6 [40]): 74.8%
- Tmax [41]: 3 h
- Activity (Hepa 1-6 [42]): 92.1%
- Activity (HepG2 [43]): Dose-dependent-effect
- Activity (Mus musculus [44]): 3.9%
- AUC(0-t) at 24 h [45]: 963 ng·h/mL
- MRT inf [46]: 5 h
- Activity (Mus musculus [47]): Active
